Laboratory results reported in patent US10036011B2, “Scavenger compounds for improved sequencing-by-synthesis” (QIAGEN Waltham, Inc., priority 2016, dated 2018).
Entries after “also recorded” stand apart in the source; their conditions may differ.

Columns and labels:
[1] = IPA solubility and stability in Cleave 1 solution / Cleave Reagent formulations (concentration curve); type: physicochemical; conditions: for Color / Precipitate / Solubility / pH: Cleave 1 solution
Protocol: IPA was initially tested for solubility and stability in Cleave Reagent formulations. […] IPA was then tested by sequencing in a head-to-head comparison with the reference cleaving reagent, gallic acid, to provide a performance benchmark. IPA was implemented into a sequencing workflow as a standalone powder component to the cleave reagent. See, Example IV.
This example tests alternative formulations and chemistry for a cleave mix including TCEP as a standard reducing agent and IPA as a radical oxygen scavenger. The goal is to test both solubility and the ease of implementation into a kit configuration.
Formation of solid components directly within a Cleave 1 solution using an IPA concentration curve (10 mM, 25 mM and 50 mM) was assessed by measuring solubility, color, precipitate observation and pH level.

[2] = Carnitine and acetylcarnitine solubility and stability in Cleave reagent; type: physicochemical; conditions: for solubility into Cleave reagent: 10 mM, 25 mM and 50 mM; for stability against discoloration and precipitation: cleave reagent formulations, storage at room temperature; for solubility in cleave reagent formulations: over a range of concentrations; for stability of solutions (discoloration or precipitate): room temperature (RT), a few hours of storage
Protocol: L-carnitine and O-acetyl-carnitine were tested for solubility and stability in cleave reagent formulations similarly to IPA. […] See, Example V.
This example tests carnitine-based compounds for solubility into Cleave reagent. Various concentrations (10 mM, 25 mM and 50 mM) of carnitine and acetylcarnitine were tested for solubility and stability.

Q: With `O=C(O)CCc1c[nH]c2ccccc12` [IPA, indole-3-propionic acid] as the molecule, how does the Color ([1]; 10 mM/2-8 C.°, 0 hours) read?
A: No color; also recorded: Transparent

Q: And the Precipitate ([1]; 10 mM/2-8 C.°, 0 hours)?
A: None

Q: And the Solubility ([1]; 10 mM/2-8 C.°, 0 hours)?
A: Excellent

Q: What about the pH ([1]; 10 mM/2-8 C.°, 0 hours) of the same molecule?
A: 12.81

Q: And the Color ([1]; 10 mM/2-8 C.°, 8 hours)?
A: Transparent; also recorded: No color

Q: What about the Precipitate ([1]; 10 mM/2-8 C.°, 8 hours) of the same molecule?
A: None

Q: And the Solubility ([1]; 10 mM/2-8 C.°, 8 hours)?
A: Excellent

Q: And the pH ([1]; 10 mM/2-8 C.°, 8 hours)?
A: 12.80

Q: And the Color ([1]; 10 mM/2-8 C.°, 48 hours)?
A: Transparent; also recorded: No color

Q: What about the Precipitate ([1]; 10 mM/2-8 C.°, 48 hours) of the same molecule?
A: None

Q: What about the Solubility ([1]; 10 mM/2-8 C.°, 48 hours) of the same molecule?
A: Excellent

Q: What about the pH ([1]; 10 mM/2-8 C.°, 48 hours) of the same molecule?
A: 12.83

Q: What about the Color ([1]; 10 mM/RT, 0 hours) of the same molecule?
A: Transparent; also recorded: No color

Q: And the Precipitate ([1]; 10 mM/RT, 0 hours)?
A: None

Q: What about the Solubility ([1]; 10 mM/RT, 0 hours) of the same molecule?
A: Excellent

Q: What about the pH ([1]; 10 mM/RT, 0 hours) of the same molecule?
A: 12.88

Q: And the Color ([1]; 10 mM/RT, 8 hours)?
A: Transparent; also recorded: No color

Q: What about the Precipitate ([1]; 10 mM/RT, 8 hours) of the same molecule?
A: None

Q: What about the Solubility ([1]; 10 mM/RT, 8 hours) of the same molecule?
A: Excellent

Q: And the pH ([1]; 10 mM/RT, 8 hours)?
A: 12.83

Q: What about the Color ([1]; 10 mM/RT, 48 hours) of the same molecule?
A: Transparent; also recorded: No color

Q: What about the Precipitate ([1]; 10 mM/RT, 48 hours) of the same molecule?
A: None

Q: What about the Solubility ([1]; 10 mM/RT, 48 hours) of the same molecule?
A: Excellent

Q: What about the pH ([1]; 10 mM/RT, 48 hours) of the same molecule?
A: 12.79

Q: And the Precipitate ([1]; 25 mM RT, 0 hours)?
A: None

Q: What about the Solubility ([1]; 25 mM RT, 0 hours) of the same molecule?
A: Excellent

Q: And the pH ([1]; 25 mM RT, 0 hours)?
A: 12.78

Q: And the Precipitate ([1]; 25 mM/2-8 C.°, 0 hours)?
A: None

Q: And the Solubility ([1]; 25 mM/2-8 C.°, 0 hours)?
A: Excellent

Q: What about the pH ([1]; 25 mM/2-8 C.°, 0 hours) of the same molecule?
A: 12.75

Q: What about the Precipitate ([1]; 25 mM/2-8 C.°, 8 hours) of the same molecule?
A: None

Q: And the Solubility ([1]; 25 mM/2-8 C.°, 8 hours)?
A: Excellent

Q: And the pH ([1]; 25 mM/2-8 C.°, 8 hours)?
A: 12.71

Q: What about the Precipitate ([1]; 25 mM/2-8 C.°, 48 hours) of the same molecule?
A: None

Q: And the Solubility ([1]; 25 mM/2-8 C.°, 48 hours)?
A: Excellent

Q: And the pH ([1]; 25 mM/2-8 C.°, 48 hours)?
A: 12.76

Q: What about the Precipitate ([1]; 25 mM/RT, 8 hours) of the same molecule?
A: None

Q: What about the Solubility ([1]; 25 mM/RT, 8 hours) of the same molecule?
A: Excellent

Q: And the pH ([1]; 25 mM/RT, 8 hours)?
A: 12.67

Q: And the Precipitate ([1]; 25 mM/RT, 48 hours)?
A: None

Q: What about the Solubility ([1]; 25 mM/RT, 48 hours) of the same molecule?
A: Excellent

Q: And the pH ([1]; 25 mM/RT, 48 hours)?
A: 12.71

Q: What about the Color ([1]; 50 mM/2-8 C.°, 0 hours) of the same molecule?
A: Transparent; also recorded: Pale yellow

Q: What about the Precipitate ([1]; 50 mM/2-8 C.°, 0 hours) of the same molecule?
A: None

Q: What about the Solubility ([1]; 50 mM/2-8 C.°, 0 hours) of the same molecule?
A: Excellent

Q: What about the pH ([1]; 50 mM/2-8 C.°, 0 hours) of the same molecule?
A: 12.67

Q: And the Precipitate ([1]; 50 mM/2-8 C.°, 8 hours)?
A: None

Q: What about the Solubility ([1]; 50 mM/2-8 C.°, 8 hours) of the same molecule?
A: Excellent

Q: And the pH ([1]; 50 mM/2-8 C.°, 8 hours)?
A: 12.61

Q: And the Precipitate ([1]; 50 mM/2-8 C.°, 48 hours)?
A: None

Q: What about the Solubility ([1]; 50 mM/2-8 C.°, 48 hours) of the same molecule?
A: Excellent

Q: And the pH ([1]; 50 mM/2-8 C.°, 48 hours)?
A: 12.64

Q: What about the Precipitate ([1]; 50 mM/RT, 0 hours) of the same molecule?
A: None

Q: What about the Solubility ([1]; 50 mM/RT, 0 hours) of the same molecule?
A: Excellent

Q: And the pH ([1]; 50 mM/RT, 0 hours)?
A: 12.61

Q: What about the Precipitate ([1]; 50 mM/RT, 8 hours) of the same molecule?
A: None

Q: What about the Solubility ([1]; 50 mM/RT, 8 hours) of the same molecule?
A: Excellent

Q: What about the pH ([1]; 50 mM/RT, 8 hours) of the same molecule?
A: 12.69

Q: What about the Precipitate ([1]; 50 mM/RT, 48 hours) of the same molecule?
A: None

Q: What about the Solubility ([1]; 50 mM/RT, 48 hours) of the same molecule?
A: Excellent

Q: And the pH ([1]; 50 mM/RT, 48 hours)?
A: 12.72

Q: What about the “stability against discoloration and precipitation” value ([1]; Cleave Reagent formulations, prolonged storage at room temperature) of the same molecule?
A: stable against discoloration and precipitation

Q: And the “stability (lack of discoloration and/or formation of precipitate)” value ([1]; aqueous solution at pH ~12)?
A: relative stability

Q: What about the “solubility in cleave reagent formulations” value ([1]; over a range of concentrations) of the same molecule?
A: highly soluble

Q: What about the “solubility in aqueous solution” value ([1]; pH ~12) of the same molecule?
A: highly soluble

Q: For `C[N+](C)(C)C[C@H](O)CC(=O)[O-]` [L-carnitine], which “solubility into Cleave reagent” value [2] is on record?
A: very soluble

Q: What about the “stability against discoloration and precipitation” value [2] of the same molecule?
A: stable against discoloration and precipitation

Q: What about the “solubility in cleave reagent formulations” value [2] of the same molecule?
A: highly soluble

Q: What about the “stability of solutions (discoloration or precipitate)” value [2] of the same molecule?
A: no discoloration or precipitate were observed

Q: What does the source list for `CC(=O)O[C@H](CC(=O)[O-])C[N+](C)(C)C` [O-acetyl-carnitine, O-acetyl-L-carnitine]?
A: solubility into Cleave reagent [2]: very soluble; stability against discoloration and precipitation [2]: stable against discoloration and precipitation; solubility in cleave reagent formulations [2]: highly soluble; stability of solutions (discoloration or precipitate) [2]: no discoloration or precipitate were observed
